Starred links: 1 amine or outer side, 2 acyl side, 3 side chain; linkers in the order of their positions; H or OH if unused. Non-standard residues stand in square brackets, D forms with d. Residues, ends and D or L forms follow the SMILES beside them. *: point of attachment. Pipz(1-CH2CO,4-CH2CH2NH) = O=C(CN1CCN(CCN[*:1])CC1)[*:2]; C18 diacid = O=C(O)CCCCCCCCCCCCCCCCC(=O)*; γGlu = O=C(O)[C@H](CCC(=O)[*:2])N[*:1]; 3Pal = N[C@@H](Cc1cccnc1)C(=O)O; NMeL = CN[C@@H](CC(C)C)C(=O)O; NMeA = CN[C@@H](C)C(=O)O; Nle = CCCC[C@H](N)C(=O)O; Sar = CNCC(=O)O
How the values were obtained:
Format in all cases: cell-based
human NMUR1 receptor = target: T1, human NMUR1 receptor (Homo sapiens, UniProt Q9HB89); assay: IP1 Gq HTRF assay, activation of human NMUR1 in buffer; settings: CHO-K1 cells expressing human NMUR1, stimulation buffer with 0.1% BSA; read-out: EC50 (hNMUR1) buffer
T1 construct: expressed in transfected cells; host or cells: CHO-K1
T1 sequence (Q9HB89 1-426): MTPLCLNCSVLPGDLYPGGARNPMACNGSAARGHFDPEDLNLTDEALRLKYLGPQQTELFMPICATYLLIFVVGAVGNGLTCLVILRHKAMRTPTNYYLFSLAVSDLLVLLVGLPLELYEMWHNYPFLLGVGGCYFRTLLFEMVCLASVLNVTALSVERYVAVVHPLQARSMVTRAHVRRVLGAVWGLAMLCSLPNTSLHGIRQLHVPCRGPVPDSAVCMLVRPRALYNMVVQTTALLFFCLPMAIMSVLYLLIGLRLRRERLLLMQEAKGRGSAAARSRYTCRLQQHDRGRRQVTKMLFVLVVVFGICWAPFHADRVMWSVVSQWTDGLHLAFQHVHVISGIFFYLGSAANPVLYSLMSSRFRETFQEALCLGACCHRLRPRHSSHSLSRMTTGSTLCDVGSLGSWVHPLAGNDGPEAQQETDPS
Source text: (§1) Example 3: IP1 Gq HTRF Assay Activation of Human NMUR2 or Human NMUR1 in Buffer Application of the Homogenous Time Resolved Fluorescence (HTRF) technology optimized for Gq coupled receptors has been described in detail in the Cisbio IP-One Gq kit manual. In brief, a FRET signal (FRET: fluorescence resonance energy transfer) is generated between the donor label of an IP-One antibody (anti-IP1-Tb) and the acceptor label of a tagged IP-One (IP1-d2). Agonism of a Gq coupled receptor increases intracellular IP-One, which competes with labeled IP-One and leads to a reduction of the FRET signal. Frozen stocks of CHO-K1 cells stably expressing the human NMUR1 or NMUR2 receptor were thawed and 5000 cells were seeded in culture medium (HAM'S F12, 10% FCS) into each well of a 384-well assay plate. After seeding, cells were incubated for 24 h in a humidified incubator at 37° C. and 5% CO2. Next, cells were washed once with 50 μL of wash buffer (20 mM Hepes, 1×HBSS, pH 7.4), followed by addition of either 10 μL of stimulation buffer (20 mM Hepes, 1×HBSS, 50 mM LiCl, 0.1% BSA, pH 7.4). Peptide agonists to be tested were dissolved in 100% DMSO and pre-diluted in stimulation buffer at a suitable concentration range for an 8 pt dose-response curve. 5 μL of peptide pre-dilution were then added to each well, followed by another 5 μL of stimulation buffer to give a final concentration of 1% DMSO. Samples were subsequently incubated for 1 hour in a humidified incubator at 37° C. After addition of 5 μL each of IP1-d2 and anti-IP1-Tb, samples were incubated for another 1 hour at room temperature and FRET signals (ratio 665 nm/620 nm) were measured. EC50 values were calculated by nonlinear regression using a 4-parameter sigmoidal curve fit.

human NMUR2 receptor [1] = target: T2, human NMUR2 receptor (Homo sapiens, UniProt Q9GZQ4); assay: IP1 Gq HTRF assay, activation of human NMUR2 in buffer; design: expressed in transfected cells; host or cells: CHO-K1; settings: CHO-K1 cells expressing human NMUR2, stimulation buffer with 0.1% BSA; read-out: EC50 (hNMUR2) buffer
T2 sequence (Q9GZQ4 whole entry): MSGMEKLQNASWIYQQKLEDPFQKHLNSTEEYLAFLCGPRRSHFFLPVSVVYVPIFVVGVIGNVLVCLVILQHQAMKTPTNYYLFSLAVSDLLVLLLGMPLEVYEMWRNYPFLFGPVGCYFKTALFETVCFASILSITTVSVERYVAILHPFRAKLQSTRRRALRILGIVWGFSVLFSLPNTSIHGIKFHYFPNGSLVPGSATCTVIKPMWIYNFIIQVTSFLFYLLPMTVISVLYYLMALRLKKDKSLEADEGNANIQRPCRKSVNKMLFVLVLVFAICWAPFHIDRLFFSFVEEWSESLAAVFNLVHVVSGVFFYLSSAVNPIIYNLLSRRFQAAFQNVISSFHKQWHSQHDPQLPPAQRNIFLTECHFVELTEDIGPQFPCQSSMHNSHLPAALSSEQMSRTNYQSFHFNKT
Source text: as §1

human NMUR2 receptor [2] = target: T2, human NMUR2 receptor; assay: IP1 Gq HTRF assay, activation of human NMUR2 in human plasma; design: expressed in transfected cells; host or cells: CHO-K1; settings: CHO-K1 cells expressing human NMUR2, 100% human plasma; read-out: EC50 (hNMUR2) human plasma
Source text: Example 4: IP1 Gq HTRF Assay Activation of Human NMUR2 in Human Plasma Application of the Homogenous Time Resolved Fluorescence (HTRF) technology optimized for Gq coupled receptors has been described in detail in the Cisbio IP-One Gq kit manual. In brief, a FRET signal is generated between the donor label of an IP-One antibody (anti-IP1-Tb) and the acceptor label of a tagged IP-One (IP1-d2). Agonism of a Gq coupled receptor increases intracellular IP-One, which competes with labeled IP-One and leads to a reduction of the FRET signal. Frozen stocks of CHO-K1 cells stably expressing the human NMUR1 receptor or human NMUR2 receptor were thawed and 5000 cells were seeded in culture medium (HAM'S F12, 10% FCS) into each well of a 384-well assay plate. After seeding, cells were incubated for 24 h in a humidified incubator at 37° C. and 5% CO2. Next, cells were washed once with […] of wash buffer (20 mM Hepes, 1×HBSS, pH 7.4), followed by addition of […] (100% human plasma, 50 mM LiCl). Peptide agonists to be tested were dissolved in 100% DMSO and pre-diluted in plasma at a suitable concentration range for an 8 pt dose-response curve. 5 μL of peptide pre-dilution were then added to each well, followed by another 5 μL of plasma to give a final concentration of 1% DMSO. Samples were subsequently incubated for 1 hour in a humidified incubator at 37° C. The plasma solution was replaced by 20 μL of stimulation buffer. After addition of 5 μL each of IP1-d2 and anti-IP1-Tb, samples were incubated for another 1 hour at room temperature and FRET signals (ratio 665 nm/620 nm) were measured. EC50 values were calculated by nonlinear regression using a 4-parameter sigmoidal curve fit.

Row | Structure (SMILES) | EC50 (human NMUR1 receptor) | EC50 (human NMUR2 receptor [1]) | EC50 (human NMUR2 receptor [2])
1 | CCCC[C@H](NC(=O)[C@H](CC(C)C)N(C)C(=O)[C@H](Cc1ccccc1)NC(=O)[C@H](Cc1ccc(O)cc1)NC(=O)CN1CCN(CCNC(=O)CN(C)C(=O)CN(C)C(=O)CN(C)C(=O)CN(C)C(=O)CN(C)C(=O)CN(C)C(=O)CN(C)C(=O)CN(C)C(=O)CN(C)C(=O)CN(C)C(=O)CN(C)C(=O)CN(C)C(=O)CC[C@H](NC(=O)CC[C@H](NC(=O)CC[C@H](NC(=O)CC[C@H](NC(=O)CCCCCCCCCCCCCCCCCCC(=O)O)C(=O)O)C(=O)O)C(=O)O)C(=O)O)CC1)C(=O)N[C@@H](CCCCN)C(=O)N1CCC[C@H]1C(=O)N[C@@H](CCCNC(=N)N)C(=O)NCC(N)=O [Compound 32, C20DA-gGlu4-Sar12-AEPipAc-Tyr-Phe-NMeLeu-Nle-Lys-Pro-Arg-Gly-NH2] | 1200 nM | 6.5 nM | 31.2 nM
2 | CCCC[C@H](NC(=O)[C@H](CC(C)C)N(C)C(=O)[C@H](Cc1ccccc1)NC(=O)[C@H](Cc1ccc(O)cc1)NC(=O)CN1CCN(CCNC(=O)CN(C)C(=O)CN(C)C(=O)CN(C)C(=O)CN(C)C(=O)CN(C)C(=O)CN(C)C(=O)CN(C)C(=O)CN(C)C(=O)CN(C)C(=O)CN(C)C(=O)CN(C)C(=O)CN(C)C(=O)CN(C)C(=O)CN(C)C(=O)CN(C)C(=O)CC[C@H](NC(=O)CC[C@H](NC(=O)CC[C@H](NC(=O)CC[C@H](NC(=O)CCCCCCCCCCCCCCCCCCC(=O)O)C(=O)O)C(=O)O)C(=O)O)C(=O)O)CC1)C(=O)N[C@@H](CCCCN)C(=O)N(C)[C@@H](C)C(=O)N[C@@H](CCCNC(=N)N)C(=O)NCC(N)=O [Compound 18, C20DA-gGlu4-Sar15-AEPipAc-Tyr-Phe-NMeLeu-Nle-Lys-NMeAla-Arg-Gly-NH2] (HELM PEPTIDE1{[O=C(O)CCCCCCCCCCCCCCCCCCC(=O)[*:2]].[gGlu].[gGlu].[gGlu].[gGlu].[Sar].[Sar].[Sar].[Sar].[Sar].[Sar].[Sar].[Sar].[Sar].[Sar].[Sar].[Sar].[Sar].[Sar].[Sar].[O=C(CN1CCN(CCN[*:1])CC1)[*:2]].Y.F.[meL].[Nle].K.[meA].R.G.[am]}$$$$V2.0) | > 1000 nM | 7 nM | 34.7 nM
3 | CCCC[C@H](NC(=O)[C@H](CC(C)C)N(C)C(=O)[C@H](Cc1ccccc1)NC(=O)[C@H](Cc1ccc(O)cc1)NC(=O)CN1CCN(CCNC(=O)CN(C)C(=O)CN(C)C(=O)CN(C)C(=O)CN(C)C(=O)CN(C)C(=O)CN(C)C(=O)CN(C)C(=O)CN(C)C(=O)CN(C)C(=O)CN(C)C(=O)CN(C)C(=O)CN(C)C(=O)CC[C@H](NC(=O)CC[C@H](NC(=O)CC[C@H](NC(=O)CCCCCCCCCCCCCCCCC(=O)O)C(=O)O)C(=O)O)C(=O)O)CC1)C(=O)N(C)[C@@H](CCCNC(=N)N)C(=O)N(C)[C@@H](C)C(=O)N[C@@H](CCCNC(=N)N)C(=O)NCC(N)=O [Compound 37, C18DA-gGlu3-Sar12-AEPipAc-Tyr-Phe-NMeLeu-Nle-NMeArg-NMeAla-Arg-Gly-NH2] | 1300 nM | 3.5 nM | 27.1 nM
4 | CCCC[C@H](NC(=O)[C@H](CC(C)C)N(C)C(=O)[C@H](Cc1ccccc1)NC(=O)[C@H](Cc1ccc(O)cc1)NC(=O)CN1CCN(CCNC(=O)CN(C)C(=O)CN(C)C(=O)CN(C)C(=O)CN(C)C(=O)CN(C)C(=O)CN(C)C(=O)CN(C)C(=O)CN(C)C(=O)CN(C)C(=O)CN(C)C(=O)CN(C)C(=O)CN(C)C(=O)CN(C)C(=O)CN(C)C(=O)CN(C)C(=O)CC[C@H](NC(=O)CC[C@H](NC(=O)CC[C@H](NC(=O)CCCCCCCCCCCCCCCCC(=O)O)C(=O)O)C(=O)O)C(=O)O)CC1)C(=O)N[C@@H](Cc1cccnc1)C(=O)N(C)[C@@H](C)C(=O)N[C@@H](CCCNC(=N)N)C(=O)NCC(N)=O [Compound 57, C18DA-gGlu3-Sar15-AEPipAc-Tyr-Phe-NMeLeu-Nle-3Pal-NMeAla-Arg-Gly-NH2] ({C18 diacid-γGlu-γGlu-γGlu}-[Sar][Sar][Sar][Sar][Sar][Sar][Sar][Sar][Sar][Sar][Sar][Sar][Sar][Sar][Sar][Pipz(1-CH2CO,4-CH2CH2NH)]YF[NMeL][Nle][3Pal][NMeA]RG-NH2) | > 1000 nM | 110 nM | 509 nM
5 | CCCC[C@H](NC(=O)[C@H](CC(C)C)N(C)C(=O)[C@H](Cc1ccccc1)NC(=O)[C@H](Cc1ccc(O)cc1)NC(=O)CN1CCN(C(=O)CN(C)C(=O)CN(C)C(=O)CN(C)C(=O)CN(C)C(=O)CN(C)C(=O)CN(C)C(=O)CN(C)C(=O)CN(C)C(=O)CN(C)C(=O)CN(C)C(=O)CN(C)C(=O)CN(C)C(=O)CN(C)C(=O)CN(C)C(=O)CN(C)C(=O)CC[C@H](NC(=O)CC[C@H](NC(=O)CC[C@H](NC(=O)CCCCCCCCCCCCCCCCCCC(=O)O)C(=O)O)C(=O)O)C(=O)O)CC1)C(=O)N[C@@H](CCCN)C(=O)N1CCC[C@H]1C(=O)N[C@@H](CCCNC(=N)N)C(=O)NCC(N)=O [Compound 80, C20DA-gGlu3-Sar15-PipAc-Tyr-Phe-NMeLeu-Nle-Orn-Pro-Arg-Gly-NH2] (HELM PEPTIDE1{[O=C(O)CCCCCCCCCCCCCCCCCCC(=O)[*:2]].[gGlu].[gGlu].[gGlu].[Sar].[Sar].[Sar].[Sar].[Sar].[Sar].[Sar].[Sar].[Sar].[Sar].[Sar].[Sar].[Sar].[Sar].[Sar].[O=C(CN1CCN([*:1])CC1)[*:2]].Y.F.[meL].[Nle].[Orn].P.R.G.[am]}$$$$V2.0) | – | 1.9 nM | 7.1 nM
6 | CCCC[C@H](NC(=O)[C@H](CC(C)C)N(C)C(=O)[C@H](Cc1ccccc1)NC(=O)[C@H](Cc1ccc(O)cc1)NC(=O)CN1CCN(CCNC(=O)CN(C)C(=O)CN(C)C(=O)CN(C)C(=O)CN(C)C(=O)CN(C)C(=O)CN(C)C(=O)CN(C)C(=O)CN(C)C(=O)CN(C)C(=O)CN(C)C(=O)CN(C)C(=O)CN(C)C(=O)CC[C@H](NC(=O)CC[C@H](NC(=O)CC[C@H](NC(=O)CC[C@H](NC(=O)CCCCCCCCCCCCCCCCCCC(=O)O)C(=O)O)C(=O)O)C(=O)O)C(=O)O)CC1)C(=O)N[C@@H](CCCN)C(=O)N1CCC[C@H]1C(=O)N[C@@H](CCCNC(=N)N)C(=O)NCC(N)=O [Compound 40, C20DA-gGlu4-Sar12-AEPipAc-Tyr-Phe-NMeLeu-Nle-Orn-Pro-Arg-Gly-NH2] | – | 4.5 nM | 11.3 nM
